The assay in a line: Reactive nitrogen species (RNS) after oral dosing of fasted rats, diaminonapthalene derivitization (DAN) assay. Type of assay: in vivo, Sprague-Dawley (SD) rats. The conditions noted are these: fasted SD rats, 40 mpk PO. The procedure: The dinitrate compounds of the invention provide enhanced NO release over mononitrate analogs. While mononitrate compounds orally dosed to rats result in reactive nitrite species circulating in plasma with maximal concentration in the 0.5-2.8 μM range, similar dosing of compounds of the present invention result in an unexpectedly large increase in circulating nitrite concentrations. A consideration of stoichiometry leads to an expectation of a doubling of nitrite levels. Compounds of the invention, however, provide a nitrite level increase more than two fold.
Biochemical evidence for the generation of NO in vivo in response to test compound administration was obtained from studies in Sprague-Dawley (SD) rats. Administration of test compound to fasted SD rats (40 mpk, PO) results in the appearance of reactive nitrogen species (RNS), assessed using the diaminonapthalene derivitization (DAN) assay. Compounds 1-2 as numbered and identified in Table 1 below were tested.

The compound `CCCCc1nc(Cl)c(COC(=O)CCCO[N+](=O)[O-])n1Cc1ccc(-c2ccccc2-c2nnn[nH]2)cc1` [Compound 1, reference compound] came in with an RNS levels (Time 0 h, in µM) of 0.7 ± 0.12; an RNS levels (Time 1 h, in µM) of 1.1 ± 0.22; an RNS levels (Time 3 h, in µM) of 1.1 ± 0.26; an RNS levels (Time 6 h, in µM) of 1.1 ± 0.34; an RNS levels (Time 24 h, in µM) of 1.7 ± 0.15.
Regarding `CCCCc1nc(Cl)c(COC(=O)CCC[C@@H](CO[N+](=O)[O-])O[N+](=O)[O-])n1Cc1ccc(-c2ccccc2-c2nnn[nH]2)cc1` [Compound 2], where the note is “Compounds 1-2 compared”, the “RNS levels (result in words)” value was “improved RNS levels”. The RNS levels by setting is: (Time 0 h) 0.6 ± 0.11; (Time 1 h) 9.8 ± 3.8; (Time 3 h) 3.1 ± 2.48; (Time 6 h) 2.1 ± 1.65; (Time 24 h, in µM) 0.5 ± 0.26.
